Assay results published in patent publication US20040106635A1, “Spiroisoquinoline compound, a method for preparing the same and an intermediate thereof” (priority 2001, published 2004).

Key:
[1] = target: acetylcholinesterase (AChE) (Homo sapiens, UniProt P22303); experiment: Inhibitory activity on acetylcholinesterase (AChE), Ellman method; type: biochemical; details: 25° C., pH 7.4, in the presence of 1% BSA, absorbance at 412 nm
Procedure: (Inhibitory Activity on acetylcholinesterase (AChE))
Each test drug was dissolved in distilled water containing 0.1% BSA (pH 7.4). Hardly water-soluble test drugs were dissolved in dimethylsulfoxide followed by being diluted with distilled water containing 0.1% BSA (pH 7.4).
Measurements of AChE activity were carried out according to the method described by Ellman et al (Biochem Pharmacol 7, 88-95, 1961). A solution of 12 mM 5,5,-dithiobis-(2-nitrobenzoic acid) (50 μL; final concentration: 0.3 mM), a solution of AChE (2-4 U/mL; 50 μL) and a test drug solution (50 μL) were added, in this order, to 110 mM phosphate buffer (1.8 mL; final concentration: 100 mM; pH 7.4) and the mixture was incubated for a predetermined period (3 to 60 minutes) at 25° C. After incubation, a solution of 20 mM acetylthiocholin iodide (50 μL; final concentration: 0.5 mM) was added to the mixture. Immediately after stirring the mixture, absorbance at 412 nm of the reaction mixture was measured. In terms of change in the absorbance per unit time (z,900 E/min), the AChE-inhibitory activity of the test drug (IC50) was calculated. Concomitantly, the measurements of the present experiment were carried out in the presence of 1% BSA.

guinea pig = experiment: Evaluation of evacuation-promoting activity (fecal pellets after clonidine); type: in vivo; details: 15 min after clonidine 30 μg/kg i.p., minimum dose with more fecal pellets than control at one hour
Procedure: (Evaluation of Evacuation-Promoting Activity)
Male Hartley guinea pigs (Age: 4 to 5 weeks; n=6 to 10/group)
Each test drug was dissolved in distilled water. Hardly water-soluble test drugs were suspended in a 0.5% carboxymethyl cellulose solution. Dose of the test drug solution was 5 mL/kg.
Guinea pigs (2 animals/cage) were encaged and acclimatized for a few days prior to the examinations. Fifteen minutes after the administration of clonidine (30 μg/kg, i.p.), each test compound solution (5 mL/kg) was administered intraperitoneally or orally to the animals. One hour after the administration of the test compound, number of evacuated fecal pellets in each cage was measured and recorded. Effective dose of the test compound was determined as a minimum dose in which the number of evacuated fecal pellets was grater than that in control group (group of guinea pigs to which clonidine and vehicle of the test compound were administered d).

[2] = target: SK channel (specific binding of 125I-apamine to the membrane); experiment: Assay of 125I-apamine-binding inhibition (competitive binding to colon membrane fraction); details: guinea pig colon membrane 10 μg/mL, 125I-apamin 10 pM, 4° C., 60 minutes; read-out: 125I-apamine-binding inhibitory activity (IC50; μM)
Procedure: (Assay of ^125I-Apamine-Binding Inhibition)
Male Hartley guinea pigs (Age: 4 weeks or more)
Each test drug was dissolved in a buffer (5 mM Tris-HCl, 5.4 mM KC1, 0.1% bovine serum albumin (BSA), pH 7.4; This buffer is hereinafter referred as buffer (3)). Hardly water-soluble test drugs were dissolved in dimethylsulfoxide followed by being diluted with buffer (3).
The experiments were carried out according to the method described by Hugues et al (Life Sciences 31, 437-443, 1982) and Catterall et al (Journal of Biochemistry 254, 11379-11387, 1979).
The colon was isolated from guinea pigs and mucosal cells were removed therefrom. The colon was homogenized together with a buffer solution (1)(40 mM Tris-HCl, 8% sucrose, pH 7.4) and the homogenate was centrifuged at 130,000 g for 60 minutes. The pellet was suspended in the buffer solution (1) and the suspension was layered on top of a discontinuous sucrose gradient composed of 33% sucrose and 40% sucrose. After centrifugation at 160,000 g for 90 minutes, the 8/33%-layer was collected and suspended in a buffer solution (2)(5 mM Tris-HCl, pH 7.4). The suspension was further centrifuged at 160,000 g for 60 minutes. The resultant pellet was suspended in buffer (3) at a final concentration of 500 μg of membrane protein per mL and used for binding assay (If necessary, this suspension was frozen and stored in a liquid nitrogen).
The membrane (10 μg/mL), ^125I-apamin (10 pM) and a test drug solution were added to the buffer (3) and the mixture was incubated at 4° C. for 60 minutes. After incubation, the mixture was filtered through cell-harvester and the radioactivity of ^125I-apamin retained by the filter was counted with a gamma-counter. The inhibitory activity (IC50) of the test drug on specific binding of ^125I-apamine to the membrane was calculated. The binding level of ^125I-apamine in the presence of large excess(100 nM) of apamine was defined as non-specific binding of ^125I-apamin.

Chain of acetylcholinesterase (AChE) (P22303 32-614, species assumed): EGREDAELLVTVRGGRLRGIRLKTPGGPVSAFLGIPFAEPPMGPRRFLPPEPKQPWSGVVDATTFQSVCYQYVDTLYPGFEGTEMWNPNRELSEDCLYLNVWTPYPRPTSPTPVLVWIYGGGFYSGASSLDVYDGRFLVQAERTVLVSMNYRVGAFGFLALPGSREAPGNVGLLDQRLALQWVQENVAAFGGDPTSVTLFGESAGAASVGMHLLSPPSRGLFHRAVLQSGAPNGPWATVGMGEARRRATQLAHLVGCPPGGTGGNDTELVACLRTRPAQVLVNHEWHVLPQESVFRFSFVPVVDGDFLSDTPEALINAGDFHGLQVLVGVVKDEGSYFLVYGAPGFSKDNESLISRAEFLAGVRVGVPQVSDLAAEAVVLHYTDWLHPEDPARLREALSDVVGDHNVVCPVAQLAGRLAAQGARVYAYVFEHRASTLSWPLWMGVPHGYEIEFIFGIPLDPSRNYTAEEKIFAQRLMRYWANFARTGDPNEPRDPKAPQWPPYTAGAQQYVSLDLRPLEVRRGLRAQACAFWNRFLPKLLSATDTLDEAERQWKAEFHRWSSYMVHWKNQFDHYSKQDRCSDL

SMILES: CCN1CCc2cc(OC)c(OC)cc2[C@@H]1[C@H]1C[C@H](C(=O)N2CCN(c3ncnc4c3cnn4Cc3ccncc3)CC2)CC[C@]12c1cc(OC)c(OC)cc1CCN2C(=O)CCNC (racemic) [Example 165(2), (1R*,2R*(S),4R)-2′-[3-(methylamino)propionyl]-3′,4′-dihydro-6′,7′-dimethoxy-2-(2-ethyl-1,2,3,4-tetrahydro-6,7-dimethoxy-1-isoquinolyl)-4-[4-[1-(4-pyridylmethyl)-1H-pyrazolo[3,4-d]pyrimidin-4-yl]-1-piperazinyl]carbonyl-spiro[cyclohexane-1,1′(2′H)-isoquinoline]]
- IC50 [1]: 0.002 µM
- Evacuation-promoting activity in guinea pig (Effective dose: mg/kg i.p.) (guinea pig): 0.01 mg/kg
- IC50 [2]: 0.05 µM

SMILES: CCC(=O)OCOC(=O)N(C)CCC(=O)N1CCc2cc(OC)c(OC)cc2[C@]12CC[C@@H](C(=O)N1CCN(c3ncnc4c3cnn4Cc3ccncc3)CC1)C[C@@H]2C1c2cc(OC)c(OC)cc2CCN1CC (relative stereo) [313 (1), (1R*,2R*(S*),4R*)-2′-[3-[N-(propionyloxymethyloxycarbonyl)-N-methylamino]propionyl]-3′,4′-dihydro-6′,7′-dimethoxy-2-(2-ethyl-1,2,3,4-tetrahydro-6,7-dimethoxy-1-isoquinolyl)-4-[4-[1-(4-pyridylmethyl)-1H-pyrazolo[3,4-d]pyrimidin-4-yl]-1-piperazinyl]carbonyl-spiro[cyclohexane-1,1′(2′H)-isoquinoline]]
- Evacuation-promoting activity in guine pig (Effective dose: mg/kg p.o.) (guinea pig): 0.1 mg/kg

SMILES: CCC(=O)OCOC(=O)N(C)CCC(=O)N1CCc2cc(OC)c(OC)cc2[C@]12CC[C@@H](C(=O)N1CCN(c3ncnc4c3cnn4Cc3ccncc3)CC1)C[C@@H]2C1c2cc(OC)c(OC)cc2CCN1CC (relative stereo) [313 (2), (1R*,2R*(S*),4R*)-2′-[3-[N-(propionyloxymethyloxycarbonyl)-N-methylamino]propionyl]-3′,4′-dihydro-6′,7′-dimethoxy-2-(2-ethyl-1,2,3,4-tetrahydro-6,7-dimethoxy-1-isoquinolyl)-4-[4-[1-(4-pyridylmethyl)-1H-pyrazolo[3,4-d]pyrimidin-4-yl]-1-piperazinyl]carbonyl-spiro[cyclohexane-1,1′(2′H)-isoquinoline]]
- Evacuation-promoting activity in guine pig (Effective dose: mg/kg p.o.) (guinea pig): 0.1 mg/kg

SMILES: CCN1CCc2cc(OC)c(OC)cc2C1[C@H]1C[C@H](C(=O)N2CCN(c3ncnc4c3nnn4C)CC2)CC[C@]12c1cc(OC)c(OC)cc1CCN2C(=O)CCN(C)C(=O)OCOC(=O)C(C)(C)C (relative stereo) [315 (2), (1R*,2R*(S*),4R*)-2′-[3-[N-(pivaloyloxy-methyloxycarbonyl)-N-methylamino]propionyl]-3′,4′-dihydro-6′,7′-dimethoxy-2-(2-ethyl-1,2,3,4-tetrahydro-6,7-dimethoxy-1-isoquinolyl)-4-[4-[3-methyl-3H-1,2,3-triazolo[4,5-d]pyrimidin-7-yl]-1-piperazinyl]carbonyl-spiro[cyclohexane-1,1′(2′H)-isoquinoline]]
- Evacuation-promoting activity in guine pig (Effective dose: mg/kg p.o.) (guinea pig): 0.3 mg/kg

SMILES: CCCn1ncc2c(N3CCN(C(=O)[C@@H]4CC[C@]5(c6cc(OC)c(OC)cc6CCN5C(=O)CCN(C)C(=O)c5ccccc5COC(=O)c5ccccc5)[C@@H](C5c6cc(OC)c(OC)cc6CCN5CC)C4)CC3)ncnc21 (relative stereo) [386 (2), (1R*,2R*(S*),4R*)-2′-[3-[N-(2-benzoyloxymethylbenzoyl)-N-methylamino]-propionyl]-3′,4′-dihydro-6′,7′-dimethoxy-2-(2-ethyl-1,2,3,4-tetrahydro-6,7-dimethoxy-1-isoquinolyl)-4-[4-[1-propyl-1H-pyrazolo[3,4-d]pyrimidin-4-yl]-1-piperazinyl]carbonyl-spiro[cyclohexane-1,1′(2′H)-isoquinoline]]
- Evacuation-promoting activity in guine pig (Effective dose: mg/kg p.o.) (guinea pig): 1 mg/kg

SMILES: COc1cc2c(cc1OC)C1(CCC(C(=O)N3CCN(c4ncnc5c4cnn5Cc4ccccn4)CC3)CC1)N(CCCN)CC2 (stereo not drawn) [282 (2)]
- IC50 [2]: 0.02 µM

SMILES: CNCCCCN1CCc2cc(OC)c(OC)cc2C12CCC(C(=O)N1CCN(c3ncnc4c3cnn4Cc3ccccc3Cl)CC1)CC2 (stereo not drawn) [295 (4), (1α,4β)-2′-[4-(methylamino)butyl]-3′,4′-dihydro-6′,7′-dimethoxy-4-[4-[1-(2-chlorophenylmethyl)-1H-pyrazolo[3,4-d]pyrimidin-4-yl]-1-piperazinyl]carbonyl-spiro[cyclohexane-1,1′(2′H)-isoquinoline]]
- IC50 [1]: 0.02 µM

SMILES: CCCn1ncc2c(N3CCN(C(=O)C4CCC5(c6cc(OC)c(OC)cc6CCN5C(=O)CCNC)C(C5c6cc(OC)c(OC)cc6CCN5CC)C4)CC3)ncnc21 (stereo not drawn) [Example 236(2)]
- IC50 [2]: 0.06 µM

SMILES: CCN1CCc2cc(OC)c(OC)cc2C1C1CC(C(=O)N2CCN(c3ncnc4c3nnn4C)CC2)CCC12c1cc(OC)c(OC)cc1CCN2C(=O)CCNC (stereo not drawn) [Example 241(2)]
- Evacuation-promoting activity in guinea pig (Effective dose: mg/kg i.p.) (guinea pig): 0.03 mg/kg
- IC50 [2]: 0.01 µM
